Laboratory results from paper PMC2367043, “Effects of Ursolic Acid and its Analogues on Soybean 15-Lipoxygenase Activity and the Proliferation Rate of A human Gastric Tumour Cell Line” (Mediators of Inflammation, 1994).
Like-named read-outs stand apart in the source and are kept apart here.

Molecular target: T1, soybean 15-lipoxygenase (Glycine max, UniProt P08170)
T1 construct: gene LOX1.1
T1 sequence (P08170 1-839): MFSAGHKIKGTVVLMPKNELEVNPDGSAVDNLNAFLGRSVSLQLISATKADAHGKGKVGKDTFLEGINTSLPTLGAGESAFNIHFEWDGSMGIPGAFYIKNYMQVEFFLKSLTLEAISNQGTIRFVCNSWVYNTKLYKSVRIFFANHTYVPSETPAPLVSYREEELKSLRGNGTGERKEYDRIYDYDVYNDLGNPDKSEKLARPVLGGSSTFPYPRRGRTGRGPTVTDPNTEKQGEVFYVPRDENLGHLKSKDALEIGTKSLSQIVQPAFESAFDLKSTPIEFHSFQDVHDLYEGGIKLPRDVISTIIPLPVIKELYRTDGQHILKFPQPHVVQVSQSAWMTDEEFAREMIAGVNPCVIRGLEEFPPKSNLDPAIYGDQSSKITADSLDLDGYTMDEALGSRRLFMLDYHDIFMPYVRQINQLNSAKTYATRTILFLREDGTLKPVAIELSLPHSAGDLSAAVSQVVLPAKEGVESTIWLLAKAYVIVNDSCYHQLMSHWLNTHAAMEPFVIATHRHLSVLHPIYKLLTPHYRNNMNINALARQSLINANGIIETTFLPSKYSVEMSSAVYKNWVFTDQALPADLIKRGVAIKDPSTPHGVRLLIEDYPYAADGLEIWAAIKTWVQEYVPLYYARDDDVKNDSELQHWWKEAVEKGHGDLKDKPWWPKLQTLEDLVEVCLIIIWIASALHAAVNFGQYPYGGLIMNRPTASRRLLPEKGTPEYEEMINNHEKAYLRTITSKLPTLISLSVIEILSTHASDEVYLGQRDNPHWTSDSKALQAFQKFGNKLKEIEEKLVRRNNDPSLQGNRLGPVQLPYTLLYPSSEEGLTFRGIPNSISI
Assay: spectrophotometric assay at […] nm of […](S)-HPODE formation from linoleic acid, pH […]
Type: biochemical

Row | IC50 (read-out: IC50) [µM] | Compound | IC50 [µM]
1 | – | CC1(C)CC[C@]2(C(=O)O)CC[C@]3(C)C(=CC[C@@H]4[C@@]5(C)CC[C@H](O)C(C)(C)[C@@H]5CC[C@]43C)[C@@H]2C1 [oleanolic acid] | 265
2 | 175 | C[C@H]1[C@H](C)CC[C@]2(C(=O)O)CC[C@]3(C)C(=CC[C@@H]4[C@@]5(C)CC[C@H](O)C(C)(C)[C@@H]5CC[C@]43C)[C@H]12 [ursolic acid] | –
